Experimental findings from ChEMBL document CHEMBL1201861, “Genomics of Drug Sensitity in Cancer screening data, Wellcome Trust Sanger Institute” are described below.

One may read the IC50 as the concentration that gives 50% inhibition. The low end stands for higher potency, the high end for lower potency.

One test relates to KP-N-YN. As to the kind of experiment: cells. Format: functional, cell-based. The settings on record: Homo sapiens.
Description: SANGER: Inhibition of human KP-N-YN cell growth in a cell viability assay.
For `CC1(C)CCC(c2ccc(Cl)cc2)=C(CN2CCN(c3ccc(C(=O)NS(=O)(=O)c4ccc(N[C@H](CCN5CCOCC5)CSc5ccccc5)c(S(=O)(=O)C(F)(F)F)c4)cc3)CC2)C1` [NAVITOCLAX], the IC50 stood at 0.236 µM.

A further test deals with NB17. As to the kind of experiment: cells. Format: functional, cell-based, Homo sapiens. The settings on record: Homo sapiens, NB17.
Description: SANGER: Inhibition of human NB17 cell growth in a cell viability assay.
On to `CC1(C)CCC(c2ccc(Cl)cc2)=C(CN2CCN(c3ccc(C(=O)NS(=O)(=O)c4ccc(N[C@H](CCN5CCOCC5)CSc5ccccc5)c(S(=O)(=O)C(F)(F)F)c4)cc3)CC2)C1` [NAVITOCLAX], for which it took 0.0712 µM to reach half-maximal inhibition (IC50).

In the next test the test system is NCI-H2228. As to the kind of experiment: cells. Format: functional, cell-based. To be noted: Homo sapiens.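 Also: growth inhibition of human NCI-H2228 cells, read out by a cell viability assay.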
Description: SANGER: Inhibition of human NCI-H2228 cell growth in a cell viability assay.
The compound `CC1(C)CCC(c2ccc(Cl)cc2)=C(CN2CCN(c3ccc(C(=O)NS(=O)(=O)c4ccc(N[C@H](CCN5CCOCC5)CSc5ccccc5)c(S(=O)(=O)C(F)(F)F)c4)cc3)CC2)C1` [NAVITOCLAX] returned an IC50 above 2 µM.

The test system of the next test is CAKI-1. As to the kind of experiment: cells. Format: functional, cell-based. To be noted: Homo sapiens.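 Also: growth inhibition of CAKI-1 cells, measured by a cell viability assay.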
Description: SANGER: Inhibition of human CAKI-1 cell growth in a cell viability assay.
`CC1(C)CCC(c2ccc(Cl)cc2)=C(CN2CCN(c3ccc(C(=O)NS(=O)(=O)c4ccc(N[C@H](CCN5CCOCC5)CSc5ccccc5)c(S(=O)(=O)C(F)(F)F)c4)cc3)CC2)C1` [NAVITOCLAX]: the IC50 is above 2 µM.

In the next test the test system is SK-MES-1. Description: cells. To be noted: Homo sapiens. Format: functional, cell-based.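 Also: growth inhibition of human SK-MES-1 cells, read out with a cell viability assay.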
Description: SANGER: Inhibition of human SK-MES-1 cell growth in a cell viability assay.
For the compound `CC1(C)CCC(c2ccc(Cl)cc2)=C(CN2CCN(c3ccc(C(=O)NS(=O)(=O)c4ccc(N[C@H](CCN5CCOCC5)CSc5ccccc5)c(S(=O)(=O)C(F)(F)F)c4)cc3)CC2)C1` [NAVITOCLAX], the IC50 was above 2 µM.

The test system of the next test is TYK-nu. Description: cells. To be noted: Homo sapiens. Format: functional, cell-based.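 Also: growth inhibition of human TYK-nu cells, read out by a cell viability assay.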
Description: SANGER: Inhibition of human TYK-nu cell growth in a cell viability assay.
For `CC1(C)CCC(c2ccc(Cl)cc2)=C(CN2CCN(c3ccc(C(=O)NS(=O)(=O)c4ccc(N[C@H](CCN5CCOCC5)CSc5ccccc5)c(S(=O)(=O)C(F)(F)F)c4)cc3)CC2)C1` [NAVITOCLAX], the IC50 was above 2 µM.

In another test the test system is HCC38. As to the kind of experiment: cells. The settings on record: Homo sapiens. Format: functional, cell-based.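 Also: cell viability assay on the human HCC38 cell line, with IC50 marking the concentration that inhibits cell growth.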
Description: SANGER: Inhibition of human HCC38 cell growth in a cell viability assay.
The compound `CC1(C)CCC(c2ccc(Cl)cc2)=C(CN2CCN(c3ccc(C(=O)NS(=O)(=O)c4ccc(N[C@H](CCN5CCOCC5)CSc5ccccc5)c(S(=O)(=O)C(F)(F)F)c4)cc3)CC2)C1` [NAVITOCLAX] came in with an IC50 of 0.802 µM.

Another test concerns T98G. As to the kind of experiment: cells. To be noted: Homo sapiens. Format: functional, cell-based.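 Also: growth inhibition of T98G cells, read out by a cell viability assay.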
Description: SANGER: Inhibition of human T98G cell growth in a cell viability assay.
Consider `CC1(C)CCC(c2ccc(Cl)cc2)=C(CN2CCN(c3ccc(C(=O)NS(=O)(=O)c4ccc(N[C@H](CCN5CCOCC5)CSc5ccccc5)c(S(=O)(=O)C(F)(F)F)c4)cc3)CC2)C1` [NAVITOCLAX], for which the IC50 was above 2 µM.

The test system of another test is LK-2. Description: cells. Format: functional, cell-based. To be noted: Homo sapiens.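 Also: growth inhibition of LK-2 cells, read out with a viability assay.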
Description: SANGER: Inhibition of human LK-2 cell growth in a cell viability assay.
On to `CC1(C)CCC(c2ccc(Cl)cc2)=C(CN2CCN(c3ccc(C(=O)NS(=O)(=O)c4ccc(N[C@H](CCN5CCOCC5)CSc5ccccc5)c(S(=O)(=O)C(F)(F)F)c4)cc3)CC2)C1` [NAVITOCLAX], for which the IC50 was above 2 µM.

In the next test the test system is Daoy. As to the kind of experiment: cells. Format: functional, cell-based. To be noted: Homo sapiens.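 Also: daoy cell growth inhibition, read out as cell viability.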
Description: SANGER: Inhibition of human Daoy cell growth in a cell viability assay.
With `CC1(C)CCC(c2ccc(Cl)cc2)=C(CN2CCN(c3ccc(C(=O)NS(=O)(=O)c4ccc(N[C@H](CCN5CCOCC5)CSc5ccccc5)c(S(=O)(=O)C(F)(F)F)c4)cc3)CC2)C1` [NAVITOCLAX], the concentration for half-maximal inhibition (IC50) was above 2 µM.

In the next test the test system is T84. Description: cells. Format: functional, cell-based. To be noted: Homo sapiens.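 Also: growth inhibition measured with a cell viability readout.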
Description: SANGER: Inhibition of human T84 cell growth in a cell viability assay.
`CC1(C)CCC(c2ccc(Cl)cc2)=C(CN2CCN(c3ccc(C(=O)NS(=O)(=O)c4ccc(N[C@H](CCN5CCOCC5)CSc5ccccc5)c(S(=O)(=O)C(F)(F)F)c4)cc3)CC2)C1` [NAVITOCLAX] showed an IC50 above 2 µM.

The next test relates to BFTC-909. Description: cells. Format: functional, cell-based. The settings on record: Homo sapiens.
Description: SANGER: Inhibition of human BFTC-909 cell growth in a cell viability assay.
Regarding `CC1(C)CCC(c2ccc(Cl)cc2)=C(CN2CCN(c3ccc(C(=O)NS(=O)(=O)c4ccc(N[C@H](CCN5CCOCC5)CSc5ccccc5)c(S(=O)(=O)C(F)(F)F)c4)cc3)CC2)C1` [NAVITOCLAX], the IC50 is above 2 µM.

The subject of the next test is ACHN. As to the kind of experiment: cells. Format: functional, cell-based. To be noted: Homo sapiens.
Description: SANGER: Inhibition of human ACHN cell growth in a cell viability assay.
As to `CC1(C)CCC(c2ccc(Cl)cc2)=C(CN2CCN(c3ccc(C(=O)NS(=O)(=O)c4ccc(N[C@H](CCN5CCOCC5)CSc5ccccc5)c(S(=O)(=O)C(F)(F)F)c4)cc3)CC2)C1` [NAVITOCLAX], the IC50 was above 2 µM.

The next test concerns NCI-H2052. As to the kind of experiment: cells. Format: functional, cell-based. To be noted: Homo sapiens.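 Also: growth inhibition of NCI-H2052 cells, read out with a cell viability assay.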
Description: SANGER: Inhibition of human NCI-H2052 cell growth in a cell viability assay.
As to `CC1(C)CCC(c2ccc(Cl)cc2)=C(CN2CCN(c3ccc(C(=O)NS(=O)(=O)c4ccc(N[C@H](CCN5CCOCC5)CSc5ccccc5)c(S(=O)(=O)C(F)(F)F)c4)cc3)CC2)C1` [NAVITOCLAX], the IC50 was determined as 1.72 µM.

A further test concerns PFSK-1. Description: cells. Format: functional, cell-based. The settings on record: Homo sapiens.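 Also: cell viability assay measuring how strongly compounds suppress growth of human PFSK-1 cells.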
Description: SANGER: Inhibition of human PFSK-1 cell growth in a cell viability assay.
`CC1(C)CCC(c2ccc(Cl)cc2)=C(CN2CCN(c3ccc(C(=O)NS(=O)(=O)c4ccc(N[C@H](CCN5CCOCC5)CSc5ccccc5)c(S(=O)(=O)C(F)(F)F)c4)cc3)CC2)C1` [NAVITOCLAX] registered an IC50 above 2 µM.

For a further test, the system named is HT-3. As to the kind of experiment: cells. The settings on record: Homo sapiens. Format: functional, cell-based.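 Also: growth inhibition measured with a cell viability readout.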
Description: SANGER: Inhibition of human HT-3 cell growth in a cell viability assay.
`CC1(C)CCC(c2ccc(Cl)cc2)=C(CN2CCN(c3ccc(C(=O)NS(=O)(=O)c4ccc(N[C@H](CCN5CCOCC5)CSc5ccccc5)c(S(=O)(=O)C(F)(F)F)c4)cc3)CC2)C1` [NAVITOCLAX] gave an IC50 above 2 µM.

For another test, the system named is CaR-1. Description: cells. Format: functional, cell-based. To be noted: Homo sapiens.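 Also: growth inhibition of human CaR-1 cancer cells, read out with a cell viability assay.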
Description: SANGER: Inhibition of human CaR-1 cell growth in a cell viability assay.
As for `CC1(C)CCC(c2ccc(Cl)cc2)=C(CN2CCN(c3ccc(C(=O)NS(=O)(=O)c4ccc(N[C@H](CCN5CCOCC5)CSc5ccccc5)c(S(=O)(=O)C(F)(F)F)c4)cc3)CC2)C1` [NAVITOCLAX], the IC50 is above 2 µM.

The test system of the next test is HCC1806. Description: cells. Format: functional, cell-based. To be noted: Homo sapiens.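 Also: growth inhibition of the cancer cell line, determined with a cell viability assay.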
Description: SANGER: Inhibition of human HCC1806 cell growth in a cell viability assay.
In turn, `CC1(C)CCC(c2ccc(Cl)cc2)=C(CN2CCN(c3ccc(C(=O)NS(=O)(=O)c4ccc(N[C@H](CCN5CCOCC5)CSc5ccccc5)c(S(=O)(=O)C(F)(F)F)c4)cc3)CC2)C1` [NAVITOCLAX] yielded an IC50 above 2 µM.

The next test has as its system SCC-4. As to the kind of experiment: cells. Format: functional, cell-based. The settings on record: Homo sapiens.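 Also: growth inhibition of human SCC-4 cells, read out as cell viability.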
Description: SANGER: Inhibition of human SCC-4 cell growth in a cell viability assay.
Consider `CC1(C)CCC(c2ccc(Cl)cc2)=C(CN2CCN(c3ccc(C(=O)NS(=O)(=O)c4ccc(N[C@H](CCN5CCOCC5)CSc5ccccc5)c(S(=O)(=O)C(F)(F)F)c4)cc3)CC2)C1` [NAVITOCLAX], for which the midpoint of inhibition, the IC50, lay at 1.6 µM.
